Patent US10407388B2, “Thiourea derivatives as activators of RORα and pharmaceutical composition containing same” (SEOUL NATIONAL UNIVERSITY R & DB FOUNDATION, priority 2011, dated 2019)

Legend:
SREBP-1 = assay: Expression of SREBP-1 protein in liver of mice with high-fat diet-induced fatty liver, western blotting; format: in vivo; conditions: oral, 10 mg/kg/day or 30 mg/kg/day for 2 days; liver tissue; FIG. 11b
Procedure: (§1) 3 days after the diet was fed, the mice were fed the high-fat diet containing safflower oil while being orally administered JC1-40 and JC1-42, which had been diluted with 0.5% carboxymethyl cellulose, at a dose of 10 mg/kg/day or 30 mg/kg/day for 2 days. 5 days after the diet was fed, the mice were sacrificed to extract liver tissues therefrom, and the expression of proteins was analyzed by western blotting analysis. That is, after treatment, each liver tissue was homogenized in a lysis buffer containing 50 mM NaCl, 50 mM Tris pH 7.4, 5 mM EDTA, 1% NP-40, and a protease inhibitor, and then centrifuged to obtain a total cell lysate. 20 μg to 30 μg of proteins collected from the total cell lysate was subjected to 7% to 9% SDS-PAGE, and was transferred to a polyvinylidene difluoride membrane (Millipore, Bedford, Mass., USA). […] Immunoreactive proteins were detected with Amersham ECL western blotting detection reagents using an HRP-conjugated secondary antibody (Zymed Lab). Protein concentrations were quantified by BCA (Pierce) analysis, and the expression of α-tubulin was monitored as a control. […]

A7r5 = assay: Proliferation of vascular smooth muscle cells, MTT; format: cell-based, rat; conditions: 100 μM for 2 days, 4 days, or 6 days, FIG. 14
Procedure: A7r5, which is a rat smooth muscle cell line, was purchased from ATCC. A7r5 was cultured in 5% CO2 using a DMEM supplemented with 10% FBS, penicillin (100 U/ml), and streptomycin (100 μg/ml) prior to use in an experiment. A7r5 cells (2×10^3 cells/well) were seeded on a 96-well culture plate and cultured overnight. After culturing, the A7r5 cells were treated with each of the JC1-40 and JC1-42 compounds at a concentration of 100 μM for 2 days, 4 days, or 6 days. Subsequently, the A7r5 cells were treated with MTT (3-4,5-dimethylthiazol-2-yl)-2,5-diphenyl-tetrazolium bromide) (2 mg/ml, 50 μl) for 4 hours, and then the medium was removed and 200 μl of DMSO was added to the plate. The contents in the plate were mixed for 5 minutes, and then absorbance was measured at 595 nm. Data was attained as the mean and SD for the three independent experimental results, and the results thereof are illustrated in FIG. 14.

ACC [1] = assay: Phosphorylation of ACC in HepG2 cells, western blotting; format: cell-based, human; conditions: 100 μM, 24 hours; FIGS. 7a and 7b
Procedure: HepG2 cells (1×10^6 cells/well) were seeded on a 60-dish, and cultured overnight in a DMEM containing 10% FBS. The HepG2 cells were maintained at 37° C. in a humidification thermostat containing 5% CO2 and 95% air. After culturing, the HepG2 cells were treated with 100 μM JC1-38 and JC1-40 (or 100 μM JC1-38 and JC1-42), 2 mM metfornin, and 2 mM AICIR for 24 hours. After treatment, the expression of RORα and phosphorylated ACC (pACC) proteins was analyzed by western blotting, and the expression of α-tubulin was monitored as a control. The results thereof are illustrated in FIGS. 7a and 7b.

HepG2 cells = assay: Lipid accumulation in hepatocytes, Nile red staining and flow cytometry; format: cell-based, human; conditions: 50 μM with oleic acid/palmitic acid mixture, 3 days; FIGS. 10a and 10b
Procedure: HepG2 cells (3×10^5 cells/well) were seeded on a 60-dish and cultured overnight in a DMEM containing 10% FBS. The HepG2 cells were maintained at 37° C. in a humidification thermostat containing 5% CO2 and 95% air. After culturing, the HepG2 cells were treated with 50 μM JC1-40 (or JC1-42) and, as a lipid generation inducing material, a fatty acid mixture prepared by mixing 0.5 mM oleic acid and 0.5 mM palmitic acid in a ratio of 2:1 (5 mM oleic acid and 5 mM palmitic acid were mixed in a medium containing 1% fatty acid-free bovine serum albumin (BSA) and diluted to the final concentration prior to use) for 3 days. After 3 days, cell lysates were collected, and stained with 1 μg/ml of Nile red at room temperature for 15 minutes, and the concentration of triglycerides was measured by a flow cytometry method using a FACSCalibur™ machine (BD Biosciences). Fluorescence emission was measured at a wavelength between 500 nm and 580 nm. The results thereof are illustrated in FIGS. 10a and 10b.

ACC [2] = assay: Phosphorylation of ACC in liver of mice with high-fat diet-induced fatty liver, western blotting; format: in vivo; conditions: oral, 10 mg/kg/day or 30 mg/kg/day for 2 days; liver tissue; FIG. 11b
Procedure: as §1

SMILES	expression of SREBP-1 protein, which had been increased by the high-fat diet (SREBP-1)	proliferation of vascular smooth muscle cells (A7r5)	phosphorylation of ACC (ACC [1])	lipid accumulation in hepatocytes (HepG2 cells)	phosphorylation of ACC (ACC [2])
CNC(=S)NCc1ccc(OCc2ccccc2)cc1 [Compound 40, 1-(4-benzyloxy-benzyl)-3-methyl-thiourea]	decreased	decreased	increased	significantly decreased	increased
CNC(=S)NCc1ccc(Oc2ccccc2)cc1 [Compound 42, 1-(4-phenoxy-benzyl)-3-methyl-thiourea]	decreased	decreased	increased	significantly decreased	increased
